Measured values published in patent EP0748792A1 (priority 1994, dated 1995).

Key:
[1] = system: total acetylating capability of the organism; assay: Acetylating capability of white rats (sodium sulfacyl acetylation, arylamine content in urine); format: in vivo; details: agent 20 mg/kg i.p. 4 days; for Acetylating properties of the organism: Na sulfacyl acetylating in the organism of rats; for Sulfacyl isolation M ± m In acetylated form / Sulfacyl isolation M ± m In free form / Sulfacyl isolation M ± m Total: Na sulfacyl excretion in urine; for % of excretion from the dose In acetylated form / % of excretion from the dose In free form / Concentration in urine In acetylated form / Concentration in urine In free form: Na sulfacyl; for Excretion % from the dose: total Na sulfacyl excretion in urine
Description: It is known that intact animals, receiving sufficient doses of pantothenic acid, have accelerated reactions of arylamine biotransformation. Therefore, there is the possibility to regulate the acetylating processes in the bodies of people and animals. In the examples given below the total acetylating capability of the organism was assessed using the method of quantitative determination of the arylamine content in the urine examined.
As a subject for acetylating, aromatic amines were chosen, as their usage makes it possible to assess both the activity of N-acetylamine transferase and (indirectly) the content of acetyl CoA.
As a subject for examination sodium sulfacyl was chosen. […] 14 animals were included in each group. The examined agent was injected intraperitoneally at a dose of 20 mg/kg. On the 4th day, 4 hours after the last injection of the examined agent, the sodium sulfacyl solution in a dose of 20 mg/kg was injected intraperitoneally. All the rats were separated into exchangeable cages for urine gathering. The collected data were compared with the control groups of animals (group I - only sodium sulfacyl in a dose of 20 mg/kg, and group II - calcium pantothenate).

non-linear white rats = assay: Subchronic toxicity in rats (2 months); format: in vivo
Description: 70 non-linear white rats of both sexes with average stated mass of 72 ± 5 g, divided into 7 groups, were used in the experiment. The first three groups of animals received ketopantothenate in 0.2 ml of distilled water in doses: 13.2 mg/kg (therapeutic dose of calcium D-pantothenate), 132 and 264 mg/kg (doses 10 and 20 times larger than the therapeutic dose) internally every day during the experiment. The next three groups of animals received the same doses of calcium D-pantothenate under the same conditions for comparison. The 7th group was the control one and included intact animals. The weighing of the animals was carried out once a week. Permanent observation on development and state of rats was carried out. […] The growth of the mass of the rats receiving ketopantothenate in different doses was 3.7 - 6.0 % higher than the growth of the mass of rats from the control group (correspondingly to doses). The growth of the mass of the rats receiving calcium D-pantothenate in comparison with the control group was approximately the same.
When the experiment was over the animals were slaughtering and the internal organs were examined visually.

white non-linear mice [2] = details: administered perorally; species not given; cited from earlier work
white non-linear mice [3] = assay: Acute toxicity in mice; format: in vivo
Description: The animals were distributed into 7 groups, 6 animals in each group.
The mice were under observation for 14 days. Starting from the dose of 6g/kg in the first 2 hours after the agent administration the intoxication symptoms were observed: inertia, quickened breathing. Then these symptoms passed without consequences. The mice in all groups were practically healthy, no deviations in the state and behavior of the animals were observed.

Molecule	Acetylating properties of the organism [1]	Sulfacyl isolation M ± m In acetylated form ([1]; sulfacyl 20 mg/kg i.p.)	Sulfacyl isolation M ± m In free form ([1]; sulfacyl 20 mg/kg i.p.)	Sulfacyl isolation M ± m Total ([1]; sulfacyl 20 mg/kg i.p.)	% of excretion from the dose In acetylated form ([1]; rats) [%]	% of excretion from the dose In free form ([1]; rats) [%]	Concentration in urine In acetylated form ([1]; rats) [mg/mL]	Concentration in urine In free form ([1]; rats) [mg/mL]	Excretion % from the dose [1] [%]	Mass Final (non-linear white rats; rat, in vivo, 13.2 mg/kg)	Mass growth during the experiment (non-linear white rats; rat, in vivo, 13.2 mg/kg) [g]	Mass growth during the experiment % to the control (non-linear white rats; rat, in vivo, 13.2 mg/kg) [%]	Mass Final (non-linear white rats; rat, in vivo, 132 mg/kg)	Mass growth during the experiment (non-linear white rats; rat, in vivo, 132 mg/kg) [g]	Mass growth during the experiment % to the control (non-linear white rats; rat, in vivo, 132 mg/kg) [%]	Mass Final (non-linear white rats; rat, in vivo, 264 mg/kg)	Mass growth during the experiment (non-linear white rats; rat, in vivo, 264 mg/kg) [g]	Mass growth during the experiment % to the control (non-linear white rats; rat, in vivo, 264 mg/kg) [%]	further results
CC(C)(CO)[C@@H](O)C(=O)NCCC(=O)O [Ca D-pantothenate, calcium D-pantothenate, reference compound]	24.0	0.67 ± 0.04	2.12 ± 0.09	2.79 ± 0.19	22.3 ± 1.8	70.7 ± 6.0	0.172	0.54	93.0	187.5 ± 18.4	117.2 ± 7.7	104.2	193.0 ± 14.6	118.7 ± 10.4	105.3	186.1 ± 16.2	114.9 ± 8.8	102.2	LD50 (white non-linear mice [2]): 5920 mg/kg
calcium ketopantothenate [Ca ketopantothenate]	25.9	0.73 ± 0.05	2.09 ± 0.17	2.82 ± 0.19	23.1 ± 1.8	66.1 ± 3.2	0.221	0.63	89.2	187.6 ± 12.5	116.6 ± 8.2	103.7	193.6 ± 17.3	119.3 ± 10.3	106.0	190.1 ± 21.0	117.6 ± 11.0	104.5	total acetylating capability of the organism of white rats (N-acetylation of aromatic amines) ([1]; rats): increased significantly; excretion of acetylated product in comparison with the control group ([1]; rats, sulfacyl 20 mg/kg i.p.): tripled; excretion of free product, lower than the control group ([1]; rats, sulfacyl 20 mg/kg i.p.): 10%; irritation of internal organs (visual examination) (non-linear white rats; rat, in vivo): No irritation; toxicity when used over a prolonged period (non-linear white rats; rats, 13.2, 132 and 264 mg/kg internally every day, 2 months): not toxic; dose from which intoxication symptoms (inertia, quickened breathing) were observed (white non-linear mice [3]; mice, single internal dose, first 2 hours after administration, symptoms passed without consequences): ≥ 6000 mg/kg; dose that was not toxic (white non-linear mice [3]; mouse, in vivo, po, 336 h): 8000 mg/kg
